# Tests used:
# [1] = system: ovalbumin-induced airway hyperresponsiveness; assay: Airway hyperresponsiveness, FlexiVent (RL, Cdyn) in OVA-sensitized and challenged mice; format: in vivo, BABL/c mice
# Description: According to the schedule (Figure 1), ten female BABL/c mice in each group were sensitized by an intraperitoneal (i.p.) injection of 20 μg of OVA emulsified in 2.25 mg of an aluminum hydroxide gel, prepared from aluminum sulfate hexadecahydrate, in a total volume of 100 μl on days 0 and 14. On day 21, these mice were injected with (i.p.) 100 μl of a mixture of 1% OVA and Freund's complete adjuvant (1:1). Mice were challenged via the airway using 1% OVA in saline for 30 min on days 28, 29, and 30 by ultrasonic nebulization. After the last of OVA challenges, AHR was assessed on day 32 (48 h after 1% OVA provocation) in each group. […] For comparison, sham-treated mice were challenged with saline instead of 1% OVA (non-challenged). […] AHR was assessed using two methods: (1) in anesthetized ventilated mice, AHR was assessed as previously described by measuring changes in the airway resistance (RL, cmH2O/ml/sec) and lung dynamic compliance (Cdyn, ml/cmH2O) after challenge with aerosolized methacholine (MCh, 0.78~25 mg/ml) using the FlexiVent system (SCIREQ, Montreal, Quebec, Canada). Anesthetized (urethane 600 mg/kg and chloralose 120 mg/kg, i.p.), tracheostomized (stainless-steel cannula, 18 G) mice were mechanically ventilated (at 150 breaths/min, with a tidal volume of 10 ml/kg, positive end-expiratory pressure of 3 cmH2O). (2) in unrestrained animals by barometric plethysmography using a whole-body plethysmograph (WBP) and analyzed using software of Life Science Suite P3 Analysis Modules (Gould, LDS Test and Measurement LLC, Valley View, OH, USA). Mice were placed into the main chamber of the WBP, and the baseline enhanced pause (Penh) value was determined.
# [2] = system: total IgG2a, total and OVA-specific IgE; assay: IgE and IgG2a levels in serum and BALF of sensitized and challenged mice (ELISA); format: in vivo, BABL/c mice; settings: 3~30 μmol/kg p.o.
# Description: According to the schedule (Figure 1), ten female BABL/c mice in each group were sensitized by an intraperitoneal (i.p.) injection of 20 μg of OVA emulsified in 2.25 mg of an aluminum hydroxide gel, prepared from aluminum sulfate hexadecahydrate, in a total volume of 100 μl on days 0 and 14. On day 21, these mice were injected with (i.p.) 100 μl of a mixture of 1% OVA and Freund's complete adjuvant (1:1). Mice were challenged via the airway using 1% OVA in saline for 30 min on days 28, 29, and 30 by ultrasonic nebulization. After the last of OVA challenges, AHR was assessed on day 32 (48 h after 1% OVA provocation) in each group. Each group of mice was orally (p.o.) administered the vehicle (control) or 3~30 μmol/kg of HDME 2 h before and 6 and 24 h after OVA provocation. For comparison, sham-treated mice were challenged with saline instead of 1% OVA (non-challenged). […] AHR was assessed using two methods: (1) in anesthetized ventilated mice, AHR was assessed as previously described by measuring changes in the airway resistance (RL, cmH2O/ml/sec) and lung dynamic compliance (Cdyn, ml/cmH2O) after challenge with aerosolized methacholine (MCh, 0.78~25 mg/ml) using the FlexiVent system (SCIREQ, Montreal, Quebec, Canada). Anesthetized (urethane 600 mg/kg and chloralose 120 mg/kg, i.p.), tracheostomized (stainless-steel cannula, 18 G) mice were mechanically ventilated (at 150 breaths/min, with a tidal volume of 10 ml/kg, positive end-expiratory pressure of 3 cmH2O). (2) in unrestrained animals by barometric plethysmography using a whole-body plethysmograph (WBP) and analyzed using software of Life Science Suite P3 Analysis Modules (Gould, LDS Test and Measurement LLC, Valley View, OH, USA). Mice were placed into the main chamber of the WBP, and the baseline enhanced pause (Penh) value was determined. Then mice were first nebulized with phosphate-buffered saline (PBS), and subsequently with increasing doses (6.25~50 mg/ml) of MCh for 3 min for each nebulization, followed by readings of breathing parameters for 3 min after each nebulization to determine Penh values.
# Twenty-four hours after Penh determination, these mice were anesthetized with pentobarbital (50 mg/kg, i.p.), and the lungs were lavaged via a tracheal tube with PBS (1 × 1.0 ml, 37°C). After lavage, blood was collected from the jugular vein and allowed to sit so that it would coagulate. The collected bronchoalveolar lavage fluid (BALF) and coagulated blood were respectively centrifuged at 630 g for 7 min and at 3700 g for 10 min at 4°C. After centrifugation, the BALF and serum supernatants were stored at -20°C until determination of cytokines, including interleukin (IL)-2, IL-4, IL-5, tumor necrosis factor (TNF)-α, and interferon (IFN)-γ by flow cytometric methods using mouse T helper (Th)1/Th2 cytokine CBA kits, and of total immunoglobulin (Ig)E or IgG2a using ELISA kits (Pharmingen, San Diego, CA, USA) according to the respective recommendations of the manufacturers. OVA-specific IgE was measured as described previously. Wells were coated with 100 μl of OVA (20 μg/ml) instead of the capture antibody. Levels are expressed in arbitrary units, where 1 arbitrary unit equals the optical density of the sample divided by the optical density of unchallenged mouse serum or BALF (standard). […] The number of inflammatory cells was counted using a hemocytometer (Hausser Scientific, Horsham, PA, USA). […]
# [3] = 3~30 μmol/kg p.o., MCh 6.25~25 mg/ml
compound,measurement,setting,value
"COc1cc(O)c2c(c1)O[C@H](c1ccc(OC)c(OC)c1)CC2=O [HDME, hesperetin-7,3'-O-dimethylether]",RL value at the baseline,[1]; 3 μmol/kg p.o.,1.06 ± 0.05 cmH2O/ml/s
same,RL value of PBS nebulization,[1]; 3 μmol/kg p.o.,1.10 ± 0.07 cmH2O/ml/s
same,RL value at the baseline,[1]; 10 μmol/kg p.o.,1.08 ± 0.06 cmH2O/ml/s
same,RL value of PBS nebulization,[1]; 10 μmol/kg p.o.,1.06 ± 0.04 cmH2O/ml/s
same,RL value at the baseline,[1]; 30 μmol/kg p.o.,1.09 ± 0.07 cmH2O/ml/s
same,RL value of PBS nebulization,[1]; 30 μmol/kg p.o.,1.07 ± 0.06 cmH2O/ml/s
same,effect on MCh-induced decrease of lung dynamic compliance (Cdyn),[1]; [3],significantly suppressed
same,effect on MCh-induced increase of airway resistance (RL),[1]; [3],significantly suppressed
same,effect on OVA-specific IgE level in the BALF,[2],dose-dependently and significantly suppressed
same,effect on OVA-specific IgE level in the serum,[2],dose-dependently and significantly suppressed
same,effect on total IgE level in the BALF,[2],dose-dependently and significantly suppressed
same,effect on total IgE level in the serum,[2],dose-dependently and significantly suppressed
same,effect on total IgG2a level in the serum,[2],dose-dependently and significantly enhanced

# From article PMC3225327 (Journal of Biomedical Science, 2011)
